In patent publication US8007782B2, “Combination bacteriolytic therapy for the treatment of tumors” (priority 2003, dated 2011):

Assays:
[1] = system: HCT116 human colorectal cancer cells; assay: Tumorigenicity assay, HCT116 xenografts in nude mice; assay type: in vivo; settings: for Effect with C. novyi-NT / Effect alone: nude mice; for Effect alone: agent alone
Description: (§1) All animal protocols were designed in accordance with the Guide for the Care and Use of Laboratory Animals (NIH Publication 86-23) and were approved by the Johns Hopkins University Institutional Animal Care and Use Committee. Six to eight week old mice were implanted subcutaneously on one flank with 3 to 6 million cancer cells. Establishment of tumors of 150 to 500 mm3 took 8 to 21 days, depending on the cell type. C. novyi-NT spores (300×106) and anti-microtubule agents were generally administered by a single intravenous injection through the tail vein in a total volume of 300 to 500 ul phosphate-buffered saline (PBS). Quantitative assessment of tumor growth was performed by measuring subcutaneous tumor grafts (major and minor axis) using electronic calipers. Tumor volume was calculated using the equation: length×width2×0.5. Progression free survival was defined as the length of time following treatment before any increase in tumor volume was observed. Mice were considered “cured” if no tumor was evident three months after treatment. Animals were weighed at least twice a week and carefully observed for signs of toxicity every day for the first week following treatment and then twice a week thereafter. At least five mice were used for each treatment arm described in the Experimental Results.
The timing, route, and dose of agents are critical for the success of any experimental therapy. When two agents are combined, the number of variables that must be tested increases exponentially. To simplify interpretation of the comparisons between various anti-microtubule agents, pilot studies with representative drugs were performed.
Eighteen agents known to interact with microtubules were each tested in this manner in nude mice harboring xenografts of HCT116 human colorectal cancer cells. At least five mice harboring tumors of 150 to 500 mm3 in size were used for each experimental arm. Two classes of responses were noted. One type of response was characterized by a rapid hemorrhagic necrosis, observed only with agents that inhibited microtubule […] (FIG. 1A, B). The other type of response was characterized by a slow regression, observed with agents that stabilized microtubules (FIG. 2A, B).

[2] = system: HCT116, HuCC-T1, HT-29, SW480, B16 and DLD-1 tumors; assay: Low dose HTI-286 and L-NNA on various xenografts (FIG. 10); assay type: in vivo, mice; settings: HTI-286 1 mg/kg without L-NNA; L-NNA 10 mg/kg without HTI-286
Description: FIG. 10A-10F Quantification of the effects of C. novyi-NT plus low doses of HTI-286 and L-NNA on various xenografts (HCT116, HuCC-T1, HT-29, SW480, B16, and DLD-1, respectively).
[…] […] The p-values are based on comparisons between L-NNA+HTI-286 and L-NNA+HTI-286+C. novyi-NT spores. The p-value is indicated only when the result was statistically significant.
All animal protocols were designed in accordance with the Guide for the Care and Use of Laboratory Animals (NIH Publication 86-23) and were approved by the Johns Hopkins University Institutional Animal Care and Use Committee. Six to eight week old mice were implanted subcutaneously on one flank with 3 to 6 million cancer cells. Establishment of tumors of 150 to 500 mm3 took 8 to 21 days, depending on the cell type. C. novyi-NT spores (300×106) and anti-microtubule agents were generally administered by a single intravenous injection through the tail vein in a total volume of 300 to 500 ul phosphate-buffered saline (PBS). Quantitative assessment of tumor growth was performed by measuring subcutaneous tumor grafts (major and minor axis) using electronic calipers. Tumor volume was calculated using the equation: length×width2×0.5. Progression free survival was defined as the length of time following treatment before any increase in tumor volume was observed. Mice were considered “cured” if no tumor was evident three months after treatment. […]

[3] = system: tumor blood flow in HCT116 xenografts; assay: Assessment of blood perfusion (Hoechst 33342) in HCT116 xenografts; assay type: in vivo, mice; settings: HTI-286 1.7 mg/kg or docetaxel 50 mg/kg iv, 3 and 24 hr after treatment
Description: Three or 24 hours after treatment, mice were intravenously injected with Hoechst 33342 (40 mg/kg) and euthanized two minutes later. Tumors were cryosectioned and viewed by fluorescence microscopy after counter-staining with acridine orange (AO). Endothelial cells are stained blue when they have taken up the Hoechst 33342 dye. Adjacent sections were stained with MECA-32 monoclonal antibody, a vascular endothelium-specific marker. Arrows point towards normal blood vessels unaffected by HTI-286 treatment in overlying skin.
Mice bearing HCT116 xenografts of 300 to 500 mm3 were injected intravenously with anti-microtubule agents. At various times thereafter, they were intravenously injected with Hoechst 33342 (40 mg/kg), then euthanized two minutes later by CO2 narcosis. Tumors were fixed in Tissue-Tek OTC compound (Sakura Finetek, Torrance, Calif.) and stored at −80° C. Frozen sections 10 microns in thickness were prepared with a Leica Microsystems cryostat and counterstained with acridine orange, 7.5 ug/ml, in PBS for 5 minutes. […] At least three sections of each of three tumors, representing middle and distal parts of the tumor, were examined under fluorescence microscopy for each agent tested, and representative results are illustrated in the figures. […]

[4] = system: Glucose Transporter-1 (Glut-1); assay: Immunohistochemistry for Glut-1 (hypoxia marker) in HCT116 xenografts; assay type: in vivo, mice; settings: HTI-286 1.7 mg/kg or docetaxel 50 mg/kg iv, 6 hr after treatment
Description: Mice were euthanized six hours after treatment. Tumors were sectioned and H & E stained. Adjacent sections were stained for Glut-1 expression, a marker for hypoxia. Cells positive for Glut-1 appear brown. Arrows indicate examples of hemorrhage.
Paraffin sections were deparaffinized, incubated with proteinase K (Invitrogen), heated at 95° C. for 20 min in citrate buffer (pH 6), and treated with peroxidase blocking reagent (Dako). Sections were incubated with a monoclonal antibody against Glucose Transporter-1 (Glut-1, Dako) followed by a biotin-conjugated secondary antibody (Pierce). A third layer consisting of HRP-conjugated anti-biotin (DAKO) was followed by diaminobenzidine (Sigma) staining. Sections were counterstained with eosin.
Two independent tests of this hypothesis were performed. First, we directly assessed hypoxia within tumors by staining with an antibody to Glucose Transporter-1 (Glut-1). Glut-1 has been extensively studied and shown to be specifically expressed only in hypoxic regions (Airley et al., 2001).

C. novyi-NT = assay: Quantification of C. novyi-NT in tumors by real-time PCR; assay type: in vivo, C. novyi-NT in mice bearing HCT116 xenografts; settings: versus spores without drug; HCT116 xenografts; SD printed +/−0.08 (HTI-286), +/−0.3 (docetaxel)
Description: Mice bearing HCT116 xenografts were treated with C. novyi-NT spores with or without HTI-286 (1.7 mg/kg) as described above. Following euthanasia 24-48 hr later, tumors were harvested, weighed, minced, and Dounce-homogenized. Genomic DNA was isolated using the Qiagen Genomic DNA Buffer Set and Genomic-tip 100/G. 25 ng of DNA was used in a PCR using the conditions described in (Vogelstein and Kinzler, 1999) The following primers specific for the C. novyi-NT phospholipase C gene were used: 5′-[…] (SEQ ID NO:1) and 5′-[…] (SEQ ID NO:2). No detectable primer dimers formed and no nonspecific amplification of mouse or xenograft genomic DNA occurred with these primers and PCR conditions. Real-time PCR was performed using an iCycler, and threshold cycle numbers were calculated using the iCycler Optical system interface software (Bio-Rad Lab, Hercules, Calif.). Averages of the threshold cycle number (Ct) of triplicate measurements per tumor were obtained, and three different tumors were studied for each treatment group. The results were expressed as the difference between the Ct of the treated tumor and the Ct of untreated controls, normalized to tumor weight.
Second, we directly tested the size of bacterial populations within tumors by measuring the number of bacteria at various times following intravenous injection of C. novyi-NT spores into mice bearing HCT116 xenografts. […]

[5] = Mortality following COBALT; assay type: in vivo, nude mice; settings: deaths within one week, pooled xenograft models
Description: as §1
(§2) This toxicity was observed only when the combination of C. novyi-NT spores and the drugs was administered and not with either the bacteria or the drugs alone. […] Though major tumor regressions were common, few mice died as a result of therapy (Table 2) No deaths occurred after treatment with the microtubule stabilizers plus C. novyi-NT, while 4% to 8% of mice treated with microtubule destabilizers plus C. novyi-NT died. The only other toxicity observed was transient weight loss (Table 3). Mice treated with the drugs alone lost ˜5 to 10% of their body weight within 7 days, while weight loss after treatment with C. novyi-NT plus these drugs varied from 8% to 18%. All weights recovered to pre-treatment levels within two weeks.

Weight loss after COBALT = assay type: in vivo, nude mice; settings: drug dose 50.0 mg/kg; maximum average weight loss relative to weight one day prior to treatment; HCT116 xenografts
Description: as §1, §2

| Compound | effect of L-NNA added to C. novyi-NT alone or high doses of HTI-286 plus C. novyi-NT [1] | effect of L-NNA on responses to low doses of HTI-286 ([1]; L-NNA 10 mg/kg) | effects on tumor growth when administered without the other agent [2] | Effect with C. novyi-NT ([1]; 12.5 mg/kg × 1 (iv) with 3×108 C. novyi-NT spores iv) | Effect with C. novyi-NT ([1]; 25 mg/kg × 1 (iv) with 3×108 C. novyi-NT spores iv) | Effect with C. novyi-NT ([1]; 50 mg/kg × 1 (iv) with 3×108 C. novyi-NT spores iv) | Effect with C. novyi-NT ([1]; 75 mg/kg × 1 (iv) with 3×108 C. novyi-NT spores iv) | Effect alone ([1]; 12.5 mg/kg × 1 (iv)) | Effect alone ([1]; 25 mg/kg × 1 (iv)) | Effect alone ([1]; 50 mg/kg × 1 (iv)) | Effect alone ([1]; 75 mg/kg × 1 (iv)) | blood flow to the tumors (Hoechst 33342 labelling) [3] | Glut-1 expression (hypoxia marker) in tumors [4] | increase in number of C. novyi-NT bacteria in tumor when co-injected with drug (C. novyi-NT) [fold] | # dead (treatment-related deaths) ([5]; drug dose 25.0 mg/kg) | # dead (treatment-related deaths) ([5]; drug dose 50.0 mg/kg) | # dead (treatment-related deaths) ([5]; drug dose 75.0 mg/kg) | Weight Loss (%) (Weight loss after COBALT) |
| --- | --- | --- | --- | --- | --- | --- | --- | --- | --- | --- | --- | --- | --- | --- | --- | --- | --- | --- |
| NC(=NCCC[C@H](N)C(=O)O)N[N+](=O)[O-] [L-NNA] | added little | significantly enhanced | no significant effects on tumor growth |  |  |  |  |  |  |  |  |  |  |  |  |  |  |  |
| CC(=O)O[C@@]12CO[C@@H]1C[C@H](O)[C@@]1(C)C(=O)[C@H](O)C3=C(C)[C@@H](OC(=O)[C@H](O)[C@@H](NC(=O)OC(C)(C)C)c4ccccc4)C[C@@](O)([C@@H](OC(=O)c4ccccc4)[C@H]21)C3(C)C [docetaxel] |  |  |  | ++ (10% to 50% shrinkage in tumor volume relative to pre-treatment size) | +++ (>50% shrinkage in tumor volume relative to pre-treatment size) | ++++ (>20% cures) | ++++ (>20% cures) | + | ++ (10% to 50% shrinkage in tumor volume relative to pre-treatment size) | ++++ (>20% cures) | +++ (>50% shrinkage in tumor volume relative to pre-treatment size) | no observable effects | No increase | 1.6 | 0 | 0 | 0 | 11.0 |
